# According to US8796256B2 (Janssen Pharmaceutica NV, priority 2010, dated 2014):
# Target: T1, ERR1 (also known as ERR-α or ERR-1) (Homo sapiens, UniProt P11474)
# T1 sequence (P11474 193-421 limits assumed): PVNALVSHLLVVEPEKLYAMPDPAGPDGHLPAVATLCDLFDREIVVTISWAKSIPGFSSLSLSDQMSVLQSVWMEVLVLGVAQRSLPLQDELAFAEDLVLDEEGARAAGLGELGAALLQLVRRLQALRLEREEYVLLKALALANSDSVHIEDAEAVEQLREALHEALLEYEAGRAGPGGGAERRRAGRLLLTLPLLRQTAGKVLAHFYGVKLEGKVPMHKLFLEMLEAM
# Assay: TR-FRET assay (disruption of co-activator peptide binding to ERR1 LBD)
# Type: biochemical
# Conditions: 6 nM 6His-ERR1LBD, 6 nM GST-SRC-2 peptide; average of 3 independent experiments
# Method in brief: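 His-tagged ERR1 ligand-binding domain and GST-labelled SRC-2 peptide, each 6 nM, equilibrated at 25° C for 4-18 h in Tris pH 8/Hepes/KCl/DTT/delipidated BSA buffer. Compound-induced loss of co-activator binding read as Eu cryptate→XL665 energy transfer; values from hyperbolic curve fits averaged over 3 independent runs.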
row,SMILES,EC50
1,"O=C1S/C(=C\c2ccc3c(ccn3Cc3ccc(Cl)cc3C(F)(F)F)c2)C(=O)N1CCN1CCOCC1 [Compound 254, (5Z)-5-({1-[4-Chloro-2-(trifluoromethyl)benzyl]-1H-indol-5-yl}methylidene)-3-(2-morpholin-4-ylethyl)-1,3-thiazolidine-2,4-dione]",0.32 µM
2,"O=C1S/C(=C\c2ccc3c(ccn3Cc3ccc(Cl)cc3C(F)(F)F)c2)C(=O)N1C[C@H]1COCCN1 [Compound 256, (5Z)-5-({1-[4-Chloro-2-(trifluoromethyl)benzyl]-1H-indol-5-yl}methylidene)-3-[(3S)-morpholin-3-ylmethyl]-1,3-thiazolidine-2,4-dione]",0.11 µM
3,"N=C(N)NOCCN1C(=O)S/C(=C\c2ccc3c(ccn3Cc3ccc(Cl)cc3C(F)(F)F)c2)C1=O [Compound 257, 1-{2-[(5Z)-5-({1-[4-Chloro-2-(trifluoromethyl)benzyl]-1H-indol-5-yl}methylidene)-2,4-dioxo-1,3-thiazolidin-3-yl]ethoxy}guanidine]",0.074 µM
4,"CCOC(=O)CN1C(=O)S/C(=C\c2ccc3c(c2)nnn3Cc2ccc(Cl)cc2C(F)(F)F)C1=O [Compound 259, Ethyl [(5Z)-5-({1-[4-chloro-2-(trifluoromethyl)benzyl]-1H-benzotriazol-5-yl}methylidene)-2,4-dioxo-1,3-thiazolidin-3-yl]acetate]",0.022 µM
5,"CCOC(=O)C1CCC(N2C(=O)S/C(=C\c3ccc4c(c3)nnn4Cc3ccc(Cl)cc3C(F)(F)F)C2=O)CC1 (centres unmarked) [Compound 261, Ethyl 4-[(5Z)-5-({1-[4-chloro-2-(trifluoromethyl)benzyl]-1H-benzotriazol-5-yl}methylidene)-2,4-dioxo-1,3-thiazolidin-3-yl]cyclohexanecarboxylate]",0.124 µM
6,"Cc1nc(CN2C(=O)S/C(=C\c3ccc4c(c3)nnn4Cc3ccc(Cl)cc3C(F)(F)F)C2=O)n[nH]1 [Compound 263, (5Z)-5-({1-[4-Chloro-2-(trifluoromethyl)benzyl]-1H-benzotriazol-5-yl}methylidene)-3-[(5-methyl-1H-1,2,4-triazol-3-yl)methyl]-1,3-thiazolidine-2,4-dione]",0.016 µM
7,"O=C1S/C(=C\c2ccc3c(c2)nnn3Cc2ccc(Cl)cc2C(F)(F)F)C(=O)N1Cc1nc[nH]n1 [Compound 264, (5Z)-5-({1-[4-Chloro-2-(trifluoromethyl)benzyl]-1H-benzotriazol-5-yl}methylidene)-3-(1H-1,2,4-triazol-3-ylmethyl)-1,3-thiazolidine-2,4-dione]",0.016 µM
8,"O=C1S/C(=C\c2ccc3c(c2)nnn3Cc2ccc(Cl)cc2C(F)(F)F)C(=O)N1Cc1nnn[nH]1 [Compound 265, (5Z)-5-({1-[4-Chloro-2-(trifluoromethyl)benzyl]-1H-benzotriazol-5-yl}methylidene)-3-(1H-tetrazol-5-ylmethyl)-1,3-thiazolidine-2,4-dione]",0.04 µM
9,"O=C(O)C1CCC(N2C(=O)S/C(=C\c3ccc4c(c3)nnn4Cc3ccc(Cl)cc3C(F)(F)F)C2=O)CC1 (centres unmarked) [Compound 266, 4-[(5Z)-5-({1-[4-Chloro-2-(trifluoromethyl)benzyl]-1H-benzotriazol-5-yl}methylidene)-2,4-dioxo-1,3-thiazolidin-3-yl]cyclohexanecarboxylic acid]",0.029 µM
10,"O=C1S/C(=C\c2ccc3c(c2)nnn3Cc2ccc(Cl)cc2C(F)(F)F)C(=O)N1C[C@H]1COCCN1 [Compound 267, (5Z)-5-({1-[4-Chloro-2-(trifluoromethyl)benzyl]-1H-benzotriazol-5-yl}methylidene)-3-[(3S)-morpholin-3-ylmethyl]-1,3-thiazolidine-2,4-dione]",0.011 µM
11,"O=C(CN1C(=O)S/C(=C\c2ccc3c(c2)nnn3Cc2ccc(Cl)cc2C(F)(F)F)C1=O)NS(=O)(=O)N1CCCC1 [Compound 268, 2-[(5Z)-5-({1-[4-Chloro-2-(trifluoromethyl)benzyl]-1H-benzotriazol-5-yl}methylidene)-2,4-dioxo-1,3-thiazolidin-3-yl]-N-(pyrrolidin-1-ylsulfonyl)acetamide]",0.046 µM
12,"O=C1S/C(=C\c2ccc3c(cnn3Cc3ccc(Cl)cc3C(F)(F)F)c2)C(=O)N1CCN1CCC(C(O)CO)CC1 (centres unmarked) [Compound 283, (5Z)-5-({1-[4-Chloro-2-(trifluoromethyl)benzyl]-1H-indazol-5-yl}methylidene)-3-{2-[4-(1,2-dihydroxyethyl)piperidin-1-yl]ethyl}-1,3-thiazolidine-2,4-dione]",0.527 µM
13,"O=C1S/C(=C\c2ccc3c(cnn3Cc3ccc(Cl)cc3C(F)(F)F)c2)C(=O)N1OCCN1CCCC1 [Compound 289, (5Z)-5-({1-[4-Chloro-2-(trifluoromethyl)benzyl]-1H-indazol-5-yl}methylidene)-3-(2-pyrrolidin-1-ylethoxy)-1,3-thiazolidine-2,4-dione]",0.017 µM
14,"O=C1S/C(=C\c2ccc3c(cnn3Cc3ccc(C(F)(F)F)cc3C(F)(F)F)c2)C(=O)N1O [Compound 291, (5Z)-5-({1-[2,4-Bis(trifluoromethyl)benzyl]-1H-indazol-5-yl}methylidene)-3-hydroxy-1,3-thiazolidine-2,4-dione]",0.047 µM
15,"O=C1S/C(=C\c2ccc3c(cnn3Cc3ccc(Cl)cc3C(F)(F)F)c2)C(=O)N1C[C@@H](O)CN1CCCC1 [Compound 292, (5Z)-5-({1-[4-Chloro-2-(trifluoromethyl)benzyl]-1H-indazol-5-yl}methylidene)-3-[(2S)-2-hydroxy-3-pyrrolidin-1-ylpropyl]-1,3-thiazolidine-2,4-dione]",0.049 µM
16,"CN(C)C[C@H](O)CN1C(=O)S/C(=C\c2ccc3c(cnn3Cc3ccc(Cl)cc3C(F)(F)F)c2)C1=O [Compound 293, (5Z)-5-({1-[4-Chloro-2-(trifluoromethyl)benzyl]-1H-indazol-5-yl}methylidene)-3-[(2S)-3-(dimethylamino)-2-hydroxypropyl]-1,3-thiazolidine-2,4-dione]",0.035 µM
17,"O=C1S/C(=C\c2ccc3c(cnn3Cc3ccc(Cl)cc3C(F)(F)F)c2)C(=O)N1C[C@H](O)CNCCF [Compound 295, (5Z)-5-({1-[4-Chloro-2-(trifluoromethyl)benzyl]-1H-indazol-5-yl}methylidene)-3-{(2R)-3-[(2-fluoroethyl)amino]-2-hydroxypropyl}-1,3-thiazolidine-2,4-dione]",0.066 µM
18,"O=C1S/C(=C\c2ccc3c(cnn3Cc3ccc(Cl)cc3C(F)(F)F)c2)C(=O)N1CCn1ccnc1 [Compound 296, (5Z)-5-({1-[4-Chloro-2-(trifluoromethyl)benzyl]-1H-indazol-5-yl}methylidene)-3-[2-(1H-imidazol-1-yl)ethyl]-1,3-thiazolidine-2,4-dione]",0.017 µM

# More lines, in order of falling EC50, values ahead:
row,EC50,SMILES
1,1.02 µM,"O=C(O)CN1C(=O)S/C(=C\c2ccc3c(ccn3Cc3ccc(F)cc3C(F)(F)F)c2)C1=O [Compound 255, [(5Z)-5-({1-[4-Fluoro-2-(trifluoromethyl)benzyl]-1H-indol-5-yl}methylidene)-2,4-dioxo-1,3-thiazolidin-3-yl]acetic acid]"
2,0.361 µM,"O=C1S/C(=C\c2ccc3c(cnn3Cc3ccc(Cl)cc3C(F)(F)F)c2)C(=O)N1CCN1CCN[C@@H](CO)C1 [Compound 282, (5Z)-5-({1-[4-Chloro-2-(trifluoromethyl)benzyl]-1H-indazol-5-yl}methylidene)-3-{2-[(3R)-3-(hydroxymethyl)piperazin-1-yl]ethyl}-1,3-thiazolidine-2,4-dione]"
3,0.129 µM,"N[C@H]1CC[C@H](CN2C(=O)S/C(=C\c3ccc4c(cnn4Cc4ccc(Cl)cc4C(F)(F)F)c3)C2=O)CC1 [Compound 284, (5Z)-3-[(trans-4-Aminocyclohexyl)methyl]-5-({1-[4-chloro-2-(trifluoromethyl)benzyl]-1H-indazol-5-yl}methylidene)-1,3-thiazolidine-2,4-dione]"
4,0.063 µM,"O=C1S/C(=C\c2ccc3c(cnn3Cc3ccc(Cl)cc3C(F)(F)F)c2)C(=O)N1C[C@H](O)CN1CC[C@@H](F)C1 [Compound 294, (5Z)-5-({1-[4-Chloro-2-(trifluoromethyl)benzyl]-1H-indazol-5-yl}methylidene)-3-{(2R)-3-[(3R)-3-fluoropyrrolidin-1-yl]-2-hydroxypropyl}-1,3-thiazolidine-2,4-dione]"
5,0.038 µM,"O=C1S/C(=C\c2ccc3c(cnn3Cc3ccc(Cl)cc3C(F)(F)F)c2)C(=O)N1CC(O)C1CCNCC1 (centres unmarked) [Compound 285, (5Z)-5-({1-[4-Chloro-2-(trifluoromethyl)benzyl]-1H-indazol-5-yl}methylidene)-3-(2-hydroxy-2-piperidin-4-ylethyl)-1,3-thiazolidine-2,4-dione]"
6,0.029 µM,"O=C1S/C(=C\c2ccc3c(c2)nnn3Cc2ccc(Cl)cc2C(F)(F)F)C(=O)N1O [Compound 290, (5Z)-5-({1-[4-Chloro-2-(trifluoromethyl)benzyl]-1H-benzotriazol-5-yl}methylidene)-3-hydroxy-1,3-thiazolidine-2,4-dione]"
7,0.024 µM,"O=C1S/C(=C\c2ccc3c(c2)nnn3Cc2ccc(Cl)cc2C(F)(F)F)C(=O)N1CCN1CCCC1 [Compound 258, (5Z)-5-({1-[4-Chloro-2-(trifluoromethyl)benzyl]-1H-benzotriazol-5-yl}methylidene)-3-(2-pyrrolidin-1-ylmethyl)-1,3-thiazolidine-2,4-dione]"
8,0.024 µM,"O=C1S/C(=C\c2ccc3c(c2)nnn3Cc2ccc(Cl)cc2C(F)(F)F)C(=O)N1Cc1c[nH]nn1 [Compound 262, (5Z)-5-({1-[4-Chloro-2-(trifluoromethyl)benzyl]-1H-benzotriazol-5-yl}methylidene)-3-(1H-1,2,3-triazol-4-ylmethyl)-1,3-thiazolidine-2,4-dione]"
